Measured values from patent US20260234630A1, “Methods for Treating Multiple Myeloma” (Celgene Corporation, priority 2022, published 2026).

Key:
UHRF1 = experiment: Protein expression changes by mass spectrometry in H929 cells; type: cell-based; details: CC-220 0.1 μM, 24 hr vs DMSO
Method: FIG. 1A-1F. Down regulation of UHRF1 transcription by IMiDs correlates with drug sensitivity of multiple myeloma. (1A) Volcano plot of protein expression changes determined by mass spectrometry in H929 cells at 24 hr of treatment with CC-220 (0.1 μM) or DMSO control. X axis, Log2fold change (FC); Y axis, significance,-log 10 [p-value]. […] (1B) Volcano plot of gene expression changes determined by Affymetrix microarray in H929 cells treated with POM (1 μM) or DMSO for 24 hr. X axis, Log2fold change (FC); Y axis, significance,-log 10 [p-value], n=2 technical replicates). […] (1C) Western blot analysis protein expression of UHRF1, Ikaros, Aiolos and ZFP91 in H929 cells treated with 1 μM POM for indicated time. (1D) qRT-PCR analysis of UHRF1 gene expression levels in cells as in (1C). Error bars represent the SEM from duplicate measurements. (1E) Western blot analysis protein expression of UHRF1 and indicated proteins in MM cells treated with DMSO (−) or 1 μM POM (+) for 3 days. GAPDH serves as a loading control. (1F) Thymidine incorporation of various MM cell lines treated with indicated dose of POM for 3 days. Error bars represent the SEM from technical replicates. […]

UHRF1 mRNA = experiment: qRT-PCR of UHRF1 gene expression in MM cells; type: cell-based; details: drug sensitive MM (FIG. 6 title)
Method: FIG. 1A-1F. Down regulation of UHRF1 transcription by IMiDs correlates with drug sensitivity of multiple myeloma. (1A) Volcano plot of protein expression changes determined by mass spectrometry in H929 cells at 24 hr of treatment with CC-220 (0.1 μM) or DMSO control. X axis, Log2fold change (FC); Y axis, significance,-log 10 [p-value]. […] (1B) Volcano plot of gene expression changes determined by Affymetrix microarray in H929 cells treated with POM (1 μM) or DMSO for 24 hr. X axis, Log2fold change (FC); Y axis, significance,-log 10 [p-value], n=2 technical replicates). […] (1C) Western blot analysis protein expression of UHRF1, Ikaros, Aiolos and ZFP91 in H929 cells treated with 1 μM POM for indicated time. (1D) qRT-PCR analysis of UHRF1 gene expression levels in cells as in (1C). Error bars represent the SEM from duplicate measurements. (1E) Western blot analysis protein expression of UHRF1 and indicated proteins in MM cells treated with DMSO (−) or 1 μM POM (+) for 3 days. GAPDH serves as a loading control. (1F) Thymidine incorporation of various MM cell lines treated with indicated dose of POM for 3 days. Error bars represent the SEM from technical replicates.
FIG. 2A-2E. UHRF1 expression is positively regulated by Ikaros and Aiolos in IMiDs sensitive MM cells. (2A) Western blot analysis protein expression of UHRF1, Ikaros, Aiolos, ZFP91 and Cereblon expression in control [shLuciferase (shLuc)] and cereblon knockdown (shCRBN) H929 cells treated with DMSO and 1 μM POM for 3 days. GAPDH, loading control. Arrow head, UHRF1. (2B) qRT-PCR analysis of UHRF1 gene expression levels in cells as in (2A). Data was normalized to ACTB. Error bars represent the SEM of technical duplicates. *** P<0.001 (Two-tailed unpaired Student's t-test). (2C) Western blot analysis protein expression of UHRF1, Ikaros and Aiolos in stably transduced H929 cells after Dox induction (0, 10, 50 or 100 ng/ml) for 3 days of non-target shRNA (shNT) or shRNAs targeting Ikaros (shIKZF1) or Aiolos (shIKZF3). (2D) qRT-PCR analysis of UHRF1 gene expression levels in cells as in (2C). Shown are cells induced with Dox (50 ng/ml) for 3 days. Data was normalized to GAPDH. Error bars represent the SEM of technical duplicates. *P<0.05, ** P<0.01, *** P<0.001, **** P<0.0001 (Two-tailed unpaired Student's t-test). (2E) ChIP-qPCR analysis of the occupancy Aiolos (upper panel) or H3K27ac (lower panel) occupancy at transcription star site (TSS), gene body (+7 kb) and gene end (GE) of UHRF1 gene in H929, MM1.S or RPMI 8226 cells treated with DMSO or 1 μM POM for 24 hr. ChIP with control rabbit IgG (IgG) serves as a negative control. Error bars represent the SEM of technical triplicates. * P<0.05, ** P<0.01, **** P<0.0001 (Two-tailed unpaired Student's t-test).
FIG. 6A-6D. […] (6A) Immunocytochemistry assay of UHRF1 in H929 cells treated with DMSO or 1 μM POM for 48 hrs. (6B) qRT-PCR analysis of UHRF1 gene expression levels in indicated MM cells treated with indicated doses of POM for 3 days. Data was normalized to ACTB. Error bars represent the SEM from duplicate measurements. * P<0.05, ** P<0.01, *** P<0.001, **** P<0.0001 (Two-tailed Student's t-test). […]
Total RNA was extracted by RNeasy Mini Kit (Qiagen) and reverse transcribed by iScrip cDNA Synthesis Kit (Bio-rad). Quantitative real-time PCR (qPCR) was conducted on a VillA 7 System using the Power SYBR Green PCR Master Mix (Applied Biosystems). Gene expression values were calculated by normalization to Actb using the comparative CT method.

[1] = test system: acute myeloid leukemia (AML); details: administered alone; cited from earlier work

Molecule | UHRF1 protein expression change (mass spectrometry) (UHRF1) | UHRF1 gene expression (UHRF1 mRNA) | response in treating AML at relapse [1]
O=C1CC[C@H](N2Cc3c(OCc4ccc(CN5CCOCC5)cc4)cccc3C2=O)C(=O)N1 [CC-220] | one of the most significantly downregulated proteins | downregulated | 
CT-011: anti-PD-1 antibody, a humanized antibody |  |  | failed to show response
